Data as given in BindingDB's records for doi:10.1002/cbic.201000487 (Eberhard Karls University of Tuebingen, 2010).

Experiments:
[1] = target: Mitogen-activated protein kinase 10 (Homo sapiens, UniProt P53779); assay: Kinase Assay; details: 37 °C
Experimental: (§1) The p38alpha reaction was carried out by using kinase (12ng per well), ATP (100uM) and incubated for 60 min at 37 C. For the JNK3 assay, kinase (10ng per well), ATP (1uM) and 45 min of incubation time at 37 C were used.

[2] = target: Mitogen-activated protein kinase 14 (Homo sapiens, UniProt Q16539); assay: Kinase Assay; details: 37 °C
Experimental: as §1

Mitogen-activated protein kinase 10, sequence (P53779 whole entry): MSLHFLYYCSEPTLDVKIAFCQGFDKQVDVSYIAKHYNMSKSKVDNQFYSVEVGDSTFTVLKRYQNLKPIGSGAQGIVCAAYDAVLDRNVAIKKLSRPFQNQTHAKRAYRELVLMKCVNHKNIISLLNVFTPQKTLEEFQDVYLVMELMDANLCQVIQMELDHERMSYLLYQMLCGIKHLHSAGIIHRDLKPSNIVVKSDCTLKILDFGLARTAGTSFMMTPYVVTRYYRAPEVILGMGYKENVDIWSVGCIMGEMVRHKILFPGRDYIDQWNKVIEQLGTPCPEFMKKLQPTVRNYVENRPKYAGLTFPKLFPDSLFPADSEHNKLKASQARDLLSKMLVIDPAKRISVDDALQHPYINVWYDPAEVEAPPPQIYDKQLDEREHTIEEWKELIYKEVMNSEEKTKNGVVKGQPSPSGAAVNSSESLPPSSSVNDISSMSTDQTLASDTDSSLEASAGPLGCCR
Mitogen-activated protein kinase 14, sequence (Q16539 whole entry): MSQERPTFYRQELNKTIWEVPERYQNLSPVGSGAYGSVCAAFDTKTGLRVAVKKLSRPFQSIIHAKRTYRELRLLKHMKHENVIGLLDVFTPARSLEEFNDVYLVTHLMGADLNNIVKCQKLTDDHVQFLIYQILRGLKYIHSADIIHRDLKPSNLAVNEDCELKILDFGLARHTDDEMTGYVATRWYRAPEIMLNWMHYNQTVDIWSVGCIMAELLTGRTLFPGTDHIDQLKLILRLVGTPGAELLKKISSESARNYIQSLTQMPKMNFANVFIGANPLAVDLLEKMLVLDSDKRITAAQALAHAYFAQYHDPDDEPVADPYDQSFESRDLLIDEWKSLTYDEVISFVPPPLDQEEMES

| SMILES | IC50 [1] [µM] | IC50 [2] [µM] |
| --- | --- | --- |
| COc1c(O)cc2oc(-c3ccc(O)cc3)c(O)c(=O)c2c1O [6-methoxy kaempferol] | 22.4 | 17.2 |
| O=c1c(O)c(-c2ccc(O)c(O)c2)oc2cc(O)cc(O)c12 [2-(3,4-dihydroxyphenyl)-3,5,7-trihydroxy-chromone;hydrate] | 2.31 | 3.45 |
| COc1c(O)cc2oc(-c3ccc(O)c(O)c3)c(O)c(=O)c2c1O [Patuletin] | 60.9 | 16.3 |
| Oc1cc(O)c2c(c1)O[C@H](c1ccc(O)c(O)c1)[C@H](O)C2 | 89.5 | 67.6 |
| O=c1c(O)c(-c2cc(O)c(O)c(O)c2)oc2cc(O)cc(O)c12 | 2.24 | 1.64 |
| O=c1c(O)c(-c2ccc(O)cc2O)oc2cc(O)cc(O)c12 [2-(2,4-dihydroxyphenyl)-3,5,7-trihydroxychromen-4-one] | 26.8 | 11.4 |
| COc1ccc(-c2cc(=O)c3c(O)c(OC)c(O)cc3o2)cc1 [4,5-Dihydroxy-6-methoxy-2-(4-methoxy-phenyl)-chromen-7-one] | – | 32.4 |
| Oc1cc(O)c2c(c1)O[C@H](c1cc(O)c(O)c(O)c1)[C@@H](O)C2 [(+)-gallocatechin] | 5.3 | 3.53 |
| O=c1cc(-c2ccc(O)c(O)c2)oc2cc(O)cc(O)c12 [2-(3,4-dihydroxyphenyl)-5,7-dihydroxy-4H-chromen-4-one] | 2.3 | 18 |
| O=c1c(-c2ccc(O)cc2)coc2cc(O)cc(O)c12 [Prunetol] | – | 61.4 |
| COc1cc(-c2oc3cc(O)cc(O)c3c(=O)c2O)ccc1O | 6.3 | 20.1 |
| O=c1cc(-c2ccc(O)cc2)oc2cc(O)cc(O)c12 [Naringenin, 18] | 2.2 | 14.3 |
| COc1ccc(-c2cc(=O)c3c(O)c(OC)c(O)c(OC)c3o2)cc1 [Nevadensin] | 16.3 | 23.9 |
| C[C@@H]1O[C@@H](OC[C@H]2O[C@@H](Oc3c(-c4ccc(O)c(O)c4)oc4cc(O)cc(O)c4c3=O)[C@H](O)[C@@H](O)[C@@H]2O)[C@H](O)[C@H](O)[C@H]1O [3-Rhamnoglucosylquercetin] | – | 65.9 |
| COc1ccc(-c2oc3cc(O)cc(O)c3c(=O)c2O)cc1 [Kaempferide] | 52.5 | 32.9 |
| COc1cc(O)c2c(=O)cc(-c3ccc(OC)c(OC)c3)oc2c1 [Luteolin-7,3',4'-trimethylether] | – | 33.2 |

| SMILES | IC50 [1] [µM] | IC50 [2] [µM] |
| --- | --- | --- |
| O=c1c(O)c(-c2ccc(O)cc2)oc2cc(O)cc(O)c12 | 19.1 | 18.4 |
| O=c1cc(-c2ccc(O)c(O)c2)oc2cc(O[C@@H]3O[C@H](CO)[C@@H](O)[C@H](O)[C@H]3O)cc(O)c12 | 2.45 | 87.1 |
| COc1c(O)cc2oc(-c3ccc(O)cc3)cc(=O)c2c1O [5,7-dihydroxy-2-(4-hydroxyphenyl)-6-methoxy-4H-chromen-4-one] | 34.8 | 18.6 |
| O=c1cc(-c2ccc(O)c(O)c2)oc2c([C@@H]3O[C@H](CO)[C@@H](O)[C@H](O)[C@H]3O)c(O)cc(O)c12 [Luteolin 8-C-glucoside] | 38.2 | 55.7 |
| COc1ccc([C@@H]2CC(=O)c3c(O)cc(O)cc3O2)cc1O [(2S)-5,7-dihydroxy-2-(3-hydroxy-4-methoxyphenyl)-3,4-dihydro-2H-1-benzopyran-4-one] | – | 54.6 |
| COc1c(O)cc2oc(-c3ccc(O)c(O)c3)cc(=O)c2c1O | 15.9 | 22.2 |
| COc1ccc(-c2cc(=O)c3c(O)cc(O)cc3o2)cc1 [5,7-dihydroxy-2-(4-methoxyphenyl)-4H-chromen-4-one] | 5.78 | 50 |
| COc1cc(O)c2c(=O)cc(-c3ccc(O)c(OC)c3)oc2c1 [Velutin] | 7.8 | 52.5 |
| COc1cc(O)c2c(=O)c(O)c(-c3ccc(OC)c(O)c3)oc2c1 [Kaempferol-7,4'-dimethylether] | 55.4 | 3.98 |
| O=c1cc(-c2ccccc2)oc2cc(O)cc(O)c12 [5,7-dihydroxy-2-phenyl-4H-chromen-4-one] | 11.8 | 39.9 |
| O=c1cc(O)cc2oc(-c3ccc(O)c(O)c3)c(O[C@@H]3O[C@H](CO)[C@@H](O)[C@H](O)[C@H]3O)c(O)c1-2 [Quercetin 3-O-beta-D-glucoside] | 21.7 | 51.3 |
| O=c1c(O)c(-c2ccc(O)c(O)c2)oc2cc(O)ccc12 [2-(3,4-dihydroxyphenyl)-3,7-dihydroxy-chromen-4-one] | 2.6 | 2.7 |
| COc1cc(O)c2c(=O)c(OC)c(-c3ccc(O)c(O)c3)oc2c1 [3',4',5-trihydroxy-3,7-dimethoxyflavone] | 7.7 | 12.3 |
| C[C@@H]1O[C@@H](Oc2c(-c3ccc(O)c(O)c3)oc3cc(O)cc(=O)c-3c2O)[C@H](O)[C@H](O)[C@H]1O | 20.2 | 28.1 |
| COc1cc(-c2cc(=O)c3c(O)c(OC)c(O)cc3o2)ccc1O [Jaceosidin] | 19.1 | 18.9 |
| COc1ccc(-c2cc(=O)c3c(O)cc(OC)cc3o2)cc1 [5-hydroxy-7-methoxy-2-(4-methoxyphenyl)-4H-chromen-4-one] | – | 27.8 |
